According to patent publication US12528786B2, “Plasma kallikrein inhibitors” (Merck Sharp & Dohme LLC, priority 2020, dated 2026):

target: T1, Human plasma kallikrein (Homo sapiens, UniProt P03952); experiment: Kallikrein Assay (fluorogenic substrate hydrolysis, AFC release); type: biochemical; conditions: purified Human plasma kallikrein 0.5 nM; substrate Acetyl-K—P—R-AFC 100 mM; 50 mM HEPES pH 7.4
T1 construct: yields a heavy chain (371 amino acids) and a light chain (248 amino acids); purchased Enzyme Research Laboratories
T1 sequence (P03952 391-638 limits assumed): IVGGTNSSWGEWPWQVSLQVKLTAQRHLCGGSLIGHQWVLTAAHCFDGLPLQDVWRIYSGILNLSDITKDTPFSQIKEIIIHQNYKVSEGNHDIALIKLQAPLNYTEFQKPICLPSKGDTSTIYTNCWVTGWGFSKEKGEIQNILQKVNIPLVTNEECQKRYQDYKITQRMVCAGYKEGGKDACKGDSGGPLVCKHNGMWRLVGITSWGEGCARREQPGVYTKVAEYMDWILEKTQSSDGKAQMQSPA
T1 sequence (P03952 20-390 partner limits assumed): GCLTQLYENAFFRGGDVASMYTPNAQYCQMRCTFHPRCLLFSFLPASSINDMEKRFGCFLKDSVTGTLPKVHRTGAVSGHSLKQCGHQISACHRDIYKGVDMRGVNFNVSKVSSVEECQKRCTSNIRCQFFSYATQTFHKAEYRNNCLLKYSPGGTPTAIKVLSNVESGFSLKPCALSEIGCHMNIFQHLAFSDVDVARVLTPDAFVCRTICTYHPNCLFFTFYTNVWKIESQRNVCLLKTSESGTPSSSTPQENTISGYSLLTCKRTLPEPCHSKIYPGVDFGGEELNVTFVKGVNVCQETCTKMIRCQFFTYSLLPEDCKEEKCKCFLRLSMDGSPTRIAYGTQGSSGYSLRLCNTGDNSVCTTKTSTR
How it was run: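 Enzyme–inhibitor equilibrated before substrate dilution to ≤0.2 Km; human plasma kallikrein at 0.5 nM final, Acetyl-K-P-R-AFC substrate, HEPES pH 7.4 buffer with NaCl, CaCl2, PEG 8000, at room temperature or 37° C. Linear-phase fluorescence rate gives percent inhibition, four-parameter logistic IC50, then Cheng-Prusoff Ki.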

Compound	IC50 [nM]
N#Cc1ccc(Cl)cc1[C@H]1C[C@@H](NC(=O)c2cnn(Cc3cnc(N4C[C@H]5C[C@H]5C4=O)nc3)c2)C1 [Example 2, N-((cis)-3-(5-chloro-2-cyanophenyl)cyclobutyl)-1-((2-((1R,5S)-2-oxo-3-azabicyclo[3.1.0]hexan-3-yl)pyrimidin-5-yl)methyl)-1H-pyrazole-4-carboxamide]	10.6
Cc1cc(N2C[C@H]3C[C@H]3C2=O)ncc1Cn1cc(C(=O)N[C@H]2C[C@@H](c3cc(Cl)ccc3C#N)C2)cn1 [Example 37, N-((cis)-3-(5-chloro-2-cyanophenyl)cyclobutyl)-1-((4-methyl-6-((1R,5S)-2-oxo-3-azabicyclo[3.1.0]hexan-3-yl)pyridin-3-yl)methyl)-1H-pyrazole-4-carboxamide]	0.7
Cc1cc(N2C[C@H]3C[C@H]3C2=O)ncc1Cn1cc(C(=O)N[C@H]2C[C@@H](c3cc(Cl)ccc3C#N)C2)c(C(F)F)n1 [Example 38, N-((cis)-3-(5-chloro-2-cyanophenyl)cyclobutyl)-3-(difluoromethyl)-1-((4-methyl-6-((1R,5S)-2-oxo-3-azabicyclo[3.1.0]hexan-3-yl)pyridin-3-yl)methyl)-1H-pyrazole-4-carboxamide]	1.1
Cc1cc(C(C)(C)n2cc(C(=O)N[C@H]3C[C@@H](c4cc(Cl)ccc4C#N)C3)nn2)cnc1N1C[C@H]2C[C@H]2C1=O [Example 61, N-((cis)-3-(5-chloro-2-cyanophenyl)cyclobutyl)-1-(2-(5-methyl-6-((1R,5S)-2-oxo-3-azabicyclo[3.1.0]hexan-3-yl)pyridin-3-yl)propan-2-yl)-1H-1,2,3-triazole-4-carboxamide]	10.1
N#Cc1ccc(Cl)cc1[C@H]1C[C@@H](NC(=O)c2cn(Cc3cnc(N4C[C@H]5C[C@H]5C4=O)nc3)nn2)C1 [Example 79, N-((cis)-3-(5-chloro-2-cyanophenyl)cyclobutyl)-1-((2-((1R,5S)-2-oxo-3-azabicyclo[3.1.0]hexan-3-yl)pyrimidin-5-yl)methyl)-1H-1,2,3-triazole-4-carboxamide]	16.1
Cc1c([C@H](C)n2cc(C(=O)N[C@H]3C[C@@](C)(c4cc(Cl)ccc4C#N)C3)nn2)cnc(N2C[C@H]3C[C@H]3C2=O)c1C [Example 141, N-((cis)-3-(5-chloro-2-cyanophenyl)-3-methylcyclobutyl)-1-((S)-1-(4,5-dimethyl-6-((1R,5S)-2-oxo-3-azabicyclo[3.1.0]hexan-3-yl)pyridin-3-yl)ethyl)-1H-1,2,3-triazole-4-carboxamide]	0.2
Cc1c([C@H](C)n2cc(C(=O)N[C@H]3C[C@@](C)(c4cc(Cl)ccc4C(N)=O)C3)nn2)cnc(N2C[C@H]3C[C@H]3C2=O)c1C [Example 142, N-((cis)-3-(2-carbamoyl-5-chlorophenyl)-3-methylcyclobutyl)-1-((S)-1-(4,5-dimethyl-6-((1R,5S)-2-oxo-3-azabicyclo[3.1.0]hexan-3-yl)pyridin-3-yl)ethyl)-1H-1,2,3-triazole-4-carboxamide]	0.4
Cc1ccc(C#N)c([C@]2(C)C[C@H](NC(=O)c3cn([C@@H](C)c4cnc(N5C[C@H]6C[C@H]6C5=O)c(C)c4C)nn3)C2)c1 [Example 143, N-((cis)-3-(2-cyano-5-methylphenyl)-3-methylcyclobutyl)-1-((S)-1-(4,5-dimethyl-6-((1R,5S)-2-oxo-3-azabicyclo[3.1.0]hexan-3-yl)pyridin-3-yl)ethyl)-1H-1,2,3-triazole-4-carboxamide]	0.2
Cc1cc(N2C[C@H]3C[C@H]3C2=O)ncc1[C@H](C)n1cc(C(=O)N[C@H]2C[C@@](C)(c3cc(Cl)ccc3C(N)=O)C2)nn1 [Example 144, N-((cis)-3-(2-carbamoyl-5-chlorophenyl)-3-methylcyclobutyl)-1-((S)-1-(4-methyl-6-((1R,5S)-2-oxo-3-azabicyclo[3.1.0]hexan-3-yl)pyridin-3-yl)ethyl)-1H-1,2,3-triazole-4-carboxamide]	1
[2H][C@]1(c2cc(Cl)ccc2C#N)C[C@@H](NC(=O)c2cn([C@@H](C)c3cnc(N4C[C@H]5C[C@H]5C4=O)cc3C)nn2)C1 [Example 147, N-((cis)-3-(5-chloro-2-cyanophenyl)cyclobutyl-3-d)-1-((S)-1-(4-methyl-6-((1R,5S)-2-oxo-3-azabicyclo[3.1.0]hexan-3-yl)pyridin-3-yl)ethyl)-1H-1,2,3-triazole-4-carboxamide]	0.6
[2H][C@]1(NC(=O)c2cn([C@@H](C)c3cnc(N4C[C@H]5C[C@H]5C4=O)cc3C)nn2)C[C@@H](c2cc(Cl)ccc2C#N)C1 [Example 148, N-((cis)-3-(5-chloro-2-cyanophenyl)cyclobutyl-1-d)-1-((S)-1-(4-methyl-6-((1R,5S)-2-oxo-3-azabicyclo[3.1.0]hexan-3-yl)pyridin-3-yl)ethyl)-1H-1,2,3-triazole-4-carboxamide]	0.6
Cc1cc(N2C[C@H]3C[C@H]3C2=O)ncc1[C@H](C)n1cc(C(=O)N[C@H]2C[C@@H](c3cc(Cl)ccc3-n3cc(F)cn3)C2)nn1 [Example 149, N-((cis)-3-(5-chloro-2-(4-fluoro-1H-pyrazol-1-yl)phenyl)cyclobutyl)-1-((S)-1-(4-methyl-6-((1R,5S)-2-oxo-3-azabicyclo[3.1.0]hexan-3-yl)pyridin-3-yl)ethyl)-1H-1,2,3-triazole-4-carboxamide]	5
Cc1c([C@H](C)n2cc(C(=O)NC34CCCC(c5cc(Cl)ccc5C#N)(C3)C4)nn2)cnc(N2C[C@H]3C[C@H]3C2=O)c1C [Example 150, N-(5-(5-chloro-2-cyanophenyl)bicyclo[3.1.1]heptan-1-yl)-1-((S)-1-(4,5-dimethyl-6-((1R,5S)-2-oxo-3-azabicyclo[3.1.0]hexan-3-yl)pyridin-3-yl)ethyl)-1H-1,2,3-triazole-4-carboxamide]	5.8
Cc1c([C@H](C)n2cc(C(=O)N[C@H]3C[C@@H](c4cc(Cl)ccc4C(N)=O)C3)nn2)cnc(N2C[C@H]3C[C@H]3C2=O)c1C [Example 158]	0.9
Cc1cc(N2C[C@H]3C[C@H]3C2=O)ncc1C1(n2cc(C(=O)N[C@H]3C[C@@H](c4cc(Cl)ccc4C#N)C3)cn2)CC1 [Example 159, N-((cis)-3-(5-chloro-2-cyanophenyl)cyclobutyl)-1-(1-(4-methyl-6-((1R,5S)-2-oxo-3-azabicyclo[3.1.0]hexan-3-yl)pyridin-3-yl)cyclopropyl)-1H-pyrazole-4-carboxamide]	1.7
Cc1cc(N2C[C@H]3C[C@H]3C2=O)ncc1C1(n2cc(C(=O)N[C@H]3C[C@@H](c4cc(Cl)ccc4C#N)C3)nn2)CC1 [Example 160, N-((cis)-3-(5-chloro-2-cyanophenyl)cyclobutyl)-1-(1-(4-methyl-6-((1R,5S)-2-oxo-3-azabicyclo[3.1.0]hexan-3-yl)pyridin-3-yl)cyclopropyl)-1H-1,2,3-triazole-4-carboxamide]	6.7
Cc1cc(N2C[C@H]3C[C@H]3C2=O)ncc1[C@H](C)c1cc(C(=O)N[C@H]2C[C@@H](c3cc(Cl)ccc3C#N)C2)n(C)n1 [Example 173, N-((cis)-3-(5-chloro-2-cyanophenyl)cyclobutyl)-1-methyl-3-((S)-1-(4-methyl-6-((1R,5S)-2-oxo-3-azabicyclo[3.1.0]hexan-3-yl)pyridin-3-yl)ethyl)-1H-pyrazole-5-carboxamide]	3.2
Cc1cc(N2C[C@H]3C[C@H]3C2=O)ncc1[C@@H](C)c1cc(C(=O)N[C@H]2C[C@@H](c3cc(Cl)ccc3C#N)C2)n(C)n1 [Example 174, N-((cis)-3-(5-chloro-2-cyanophenyl)cyclobutyl)-1-methyl-3-((R)-1-(4-methyl-6-((1R,5S)-2-oxo-3-azabicyclo[3.1.0]hexan-3-yl)pyridin-3-yl)ethyl)-1H-pyrazole-5-carboxamide]	26.9
N-((cis)-3-(5-chloro-2-cyanophenyl)cyclobutyl)-1-((R)-3-((1R,5S)-2-oxo-3-azabicyclo[3.1.0]hexan-3-yl)-6,7-dihydro-5H-cyclopenta[c]pyridin-7-yl)-1H-1,2,3-triazole-4-carboxamide and N-((cis)-3-(5-chloro-2-cyanophenyl)cyclobutyl)-1-((S)-3-((1R,5S)-2-oxo-3-azabicyclo[3.1.0]hexan-3-yl)-6,7-dihydro-5H-cyclopenta[c]pyridin-7-yl)-1H-1,2,3-triazole-4-carboxamide [Example 153]	23.9
